Assay results published in ChEMBL document CHEMBL1909046, “DrugMatrix in vitro pharmacology data”.

Key:
[1] = target: T1, Alpha-1D adrenergic receptor (Homo sapiens, UniProt P25100); format: cell membranes, HEK293, Membrane; conditions: hek293; further: in other assays of this panel Not Active means under 50% inhibition at 10 µM
T1 sequence (P25100 whole entry): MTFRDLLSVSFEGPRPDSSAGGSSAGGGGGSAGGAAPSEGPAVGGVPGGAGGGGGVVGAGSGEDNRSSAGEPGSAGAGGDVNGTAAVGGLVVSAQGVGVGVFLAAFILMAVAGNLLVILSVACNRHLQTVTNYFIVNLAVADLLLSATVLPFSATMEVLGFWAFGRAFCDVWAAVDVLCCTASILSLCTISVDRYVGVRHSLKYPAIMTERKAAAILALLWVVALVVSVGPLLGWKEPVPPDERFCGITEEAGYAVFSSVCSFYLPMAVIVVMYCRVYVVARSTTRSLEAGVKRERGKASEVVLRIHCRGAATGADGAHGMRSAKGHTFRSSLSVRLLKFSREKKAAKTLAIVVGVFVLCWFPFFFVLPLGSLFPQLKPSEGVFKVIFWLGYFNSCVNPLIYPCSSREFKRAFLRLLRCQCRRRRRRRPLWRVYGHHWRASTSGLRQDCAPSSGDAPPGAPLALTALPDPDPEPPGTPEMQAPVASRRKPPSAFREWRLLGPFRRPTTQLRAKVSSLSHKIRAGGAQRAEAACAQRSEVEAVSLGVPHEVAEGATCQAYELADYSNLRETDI

[2] = target: Substance-P receptor (Homo sapiens, UniProt P25103); format: cell membranes, CHO, Membrane; conditions: cho; further: in other assays of this panel Not Active means under 50% inhibition at 10 µM
Chain of Substance-P receptor (P25103 whole entry): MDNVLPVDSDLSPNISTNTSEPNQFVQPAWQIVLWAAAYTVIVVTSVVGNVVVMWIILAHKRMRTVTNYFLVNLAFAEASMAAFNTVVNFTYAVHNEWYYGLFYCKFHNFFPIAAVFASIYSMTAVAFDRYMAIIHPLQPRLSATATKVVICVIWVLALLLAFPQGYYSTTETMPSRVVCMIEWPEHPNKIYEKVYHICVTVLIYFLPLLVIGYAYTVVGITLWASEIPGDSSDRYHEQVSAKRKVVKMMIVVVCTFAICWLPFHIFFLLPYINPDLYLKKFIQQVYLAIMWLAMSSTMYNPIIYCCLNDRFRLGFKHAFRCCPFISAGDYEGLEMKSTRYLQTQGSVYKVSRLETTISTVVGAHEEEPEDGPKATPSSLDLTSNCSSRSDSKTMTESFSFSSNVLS

[3] = target: T2, Nitric oxide synthase, inducible (Mus musculus, UniProt P29477); set-up: species or system Escherichia coli;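 further: inhibition of iNOS enzyme activity measured with L-arginine as substrate; in other assays of this panel Not Active means under 50% inhibition at 10 µM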
T2 sequence (P29477 whole entry): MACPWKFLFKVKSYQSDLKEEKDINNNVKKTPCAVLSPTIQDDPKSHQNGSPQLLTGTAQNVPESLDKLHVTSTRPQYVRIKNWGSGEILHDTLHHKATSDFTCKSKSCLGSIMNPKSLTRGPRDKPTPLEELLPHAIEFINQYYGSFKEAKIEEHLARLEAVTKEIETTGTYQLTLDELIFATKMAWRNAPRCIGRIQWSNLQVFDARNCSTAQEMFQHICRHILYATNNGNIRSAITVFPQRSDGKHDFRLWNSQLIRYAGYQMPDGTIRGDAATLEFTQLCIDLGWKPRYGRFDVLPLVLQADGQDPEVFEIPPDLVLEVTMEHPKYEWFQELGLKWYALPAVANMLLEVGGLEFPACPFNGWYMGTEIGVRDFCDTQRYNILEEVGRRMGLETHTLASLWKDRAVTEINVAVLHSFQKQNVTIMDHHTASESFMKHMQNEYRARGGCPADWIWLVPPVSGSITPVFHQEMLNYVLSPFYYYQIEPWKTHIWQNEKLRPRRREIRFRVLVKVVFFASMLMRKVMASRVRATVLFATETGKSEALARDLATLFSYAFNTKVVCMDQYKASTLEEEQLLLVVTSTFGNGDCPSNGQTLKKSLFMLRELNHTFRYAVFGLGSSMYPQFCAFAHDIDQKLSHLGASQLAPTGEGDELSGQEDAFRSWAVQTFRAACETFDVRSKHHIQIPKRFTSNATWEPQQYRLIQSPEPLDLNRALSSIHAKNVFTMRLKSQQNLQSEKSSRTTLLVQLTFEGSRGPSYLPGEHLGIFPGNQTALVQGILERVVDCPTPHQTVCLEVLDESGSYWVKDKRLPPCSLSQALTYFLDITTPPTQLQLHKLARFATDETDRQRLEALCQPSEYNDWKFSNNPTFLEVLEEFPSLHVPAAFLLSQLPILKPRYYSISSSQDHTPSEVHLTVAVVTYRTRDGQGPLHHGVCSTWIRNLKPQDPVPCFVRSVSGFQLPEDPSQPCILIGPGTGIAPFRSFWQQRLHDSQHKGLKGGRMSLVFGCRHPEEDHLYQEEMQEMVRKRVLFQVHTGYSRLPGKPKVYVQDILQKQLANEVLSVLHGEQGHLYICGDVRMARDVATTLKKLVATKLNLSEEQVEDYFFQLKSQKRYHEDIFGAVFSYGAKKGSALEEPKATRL

[4] = target: T3, Progesterone receptor (Bos taurus, UniProt Q690N0); assay: DRUGMATRIX: Progesterone radioligand binding (ligand: [3H] R-5020); format: tissue-based, Uterus; conditions: Not Active = under 50% inhibition at 10 µM
T3 sequence (Q690N0 whole entry): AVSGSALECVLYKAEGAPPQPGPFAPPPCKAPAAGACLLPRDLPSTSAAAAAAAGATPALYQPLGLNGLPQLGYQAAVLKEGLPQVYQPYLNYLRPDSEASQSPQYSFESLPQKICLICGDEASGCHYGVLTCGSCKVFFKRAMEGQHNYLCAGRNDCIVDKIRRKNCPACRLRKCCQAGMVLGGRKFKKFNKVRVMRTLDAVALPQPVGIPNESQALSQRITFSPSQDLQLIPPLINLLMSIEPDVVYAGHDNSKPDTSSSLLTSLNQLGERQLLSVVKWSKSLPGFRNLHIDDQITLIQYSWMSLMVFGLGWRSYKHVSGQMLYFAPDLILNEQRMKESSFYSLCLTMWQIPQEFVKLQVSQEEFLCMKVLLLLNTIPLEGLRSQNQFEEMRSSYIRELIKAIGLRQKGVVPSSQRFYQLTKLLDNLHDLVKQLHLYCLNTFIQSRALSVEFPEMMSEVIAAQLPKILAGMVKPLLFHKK

[5] = target: Acetylcholinesterase (Homo sapiens, UniProt P22303); assay: DRUGMATRIX: Acetylcholinesterase enzyme inhibition (substrate: acetylthiocholine); format: cell-based, HEK293; conditions: hek293; Not Active = under 50% inhibition at 10 µM
Chain of Acetylcholinesterase (P22303 whole entry): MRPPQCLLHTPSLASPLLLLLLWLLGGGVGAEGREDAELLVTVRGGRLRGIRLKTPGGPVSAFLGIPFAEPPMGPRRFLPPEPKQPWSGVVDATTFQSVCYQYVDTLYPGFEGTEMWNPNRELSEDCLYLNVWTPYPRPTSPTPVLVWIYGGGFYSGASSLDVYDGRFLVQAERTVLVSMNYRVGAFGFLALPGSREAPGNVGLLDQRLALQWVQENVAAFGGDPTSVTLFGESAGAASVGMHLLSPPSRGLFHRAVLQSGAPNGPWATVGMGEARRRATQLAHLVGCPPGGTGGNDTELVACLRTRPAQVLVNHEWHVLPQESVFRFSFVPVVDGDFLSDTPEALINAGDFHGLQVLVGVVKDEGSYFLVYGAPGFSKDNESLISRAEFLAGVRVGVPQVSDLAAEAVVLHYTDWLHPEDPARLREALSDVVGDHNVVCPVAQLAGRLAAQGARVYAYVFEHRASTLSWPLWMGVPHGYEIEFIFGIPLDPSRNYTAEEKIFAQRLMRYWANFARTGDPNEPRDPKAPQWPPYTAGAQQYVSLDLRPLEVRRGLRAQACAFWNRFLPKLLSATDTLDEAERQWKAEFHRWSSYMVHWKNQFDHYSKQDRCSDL

Compound	IC50 [1]	IC50 [2]	IC50 [3]	IC50 ([4]; read-out: IC50)	Ki ([4]; read-out: Ki)	IC50 [5]	IC50 [4]	Ki [1]	Ki [2]	Ki [3]	Ki [4]	Ki [5]
CC1(C)O[C@@H]2C[C@H]3[C@@H]4CCC5=CC(=O)C=C[C@]5(C)[C@@]4(F)[C@@H](O)C[C@]3(C)[C@]2(C(=O)CO)O1 [TRIAMCINOLONE ACETONIDE]	Not Active	Not Active	Not Active	179 nM	23 nM	Not Active	–	–	–	–	–	–
NS(=O)(=O)c1cc2c(cc1Cl)NC(C(Cl)Cl)NS2(=O)=O (stereo unspecified) [TRICHLORMETHIAZIDE]	Not Active	Not Active	Not Active	–	–	Not Active	Not Active	–	–	–	–	–
Cc1c(C)c2c(c(C)c1O)CCC(C)(COc1ccc(CC3SC(=O)NC3=O)cc1)O2 (stereo unspecified) [TROGLITAZONE]	Not Active	Not Active	Not Active	–	–	Not Active	Not Active	–	–	–	–	–
N[C@@H]1[C@H]2CN(c3nc4c(cc3F)c(=O)c(C(=O)O)cn4-c3ccc(F)cc3F)C[C@@H]12 [TROVAFLOXACIN]	Not Active	Not Active	Not Active	–	–	Not Active	Not Active	–	–	–	–	–
N#CC(C#N)=Cc1ccc(O)c(O)c1 [TYRPHOSTIN 23]	Not Active	Not Active	Not Active	–	–	Not Active	Not Active	–	–	–	–	–
CC[C@]1(O)C[C@H]2CN(CCc3c([nH]c4ccccc34)[C@@](C(=O)OC)(c3cc4c(cc3OC)N(C=O)[C@H]3[C@@](O)(C(=O)OC)[C@H](OC(C)=O)[C@]5(CC)C=CCN6CC[C@]43[C@@H]65)C2)C1 [VINCRISTINE]	Not Active	Not Active	Not Active	–	–	Not Active	Not Active	–	–	–	–	–
CCCOc1ccccc1-c1nc2nn[nH]c2c(=O)[nH]1 [ZAPRINAST]	Not Active	Not Active	Not Active	–	–	Not Active	Not Active	–	–	–	–	–
SODIUM NITROPRUSSIDE	Not Active	Not Active	Not Active	–	–	Not Active	Not Active	Not Active	Not Active	Not Active	Not Active	Not Active
